{
  "source": "patent US20100167396A1",
  "about": "“Application of Anti-Apoptotic Gene Expression in Mammalian Cells for Perfusion Culture” (BAYER HEALTHCARE LLC, priority 2006, published 2010)",
  "key": {"[1]": {"tested_on": "blank vector and parental BHK-FVIII cell lines", "assay": "Thapsigargin-induced caspase-3 activation, control cell lines", "type": "cell-based, hamster", "conditions": "24 hours after 2 μM thapsigargin treatment", "description": "(§1) Cells were seeded at a density of 5×10^6 cells/mL in shake flasks and cultured in an incubator maintained at 37° C. and 5% CO2. The culture was examined every 24 hours for viability, caspase-3 activation, Annexin-V binding assay, and nutrient measurements. Cell count was performed by trypan blue exclusion assay using a Cedex cell counting device (Innovatis, Bielefeld, Germany). Caspase-3 activation was detected using a Guava PCA system (Guava Technologies, Hayward, Calif.). Cells were washed with cold PBS, fixed with Cytofix/Cytoperm solution (BD Pharmingen, San Diego, Calif.), and then stained with PE-conjugated monoclonal active caspase-3 antibody (BD Pharmingen) before analyzing with the Guava system. For the Annexin-V binding assay, cells were collected and incubated using a Guava Nexin kit and analyzed on the Guava PCA system according to manufacturer's instructions (Guava Technologies). Levels of glutamine, glutamate, glucose, and lactate were measured by the YSI analyzer (YSI Life Sciences, Yellow Springs, Ohio).\n(§2) The engineered cell lines Aven-E1B-19K #22 and E1B-19K #6, in addition to the blank vector and the parental cell lines were treated with thapsigargin in shake flask culture. […] To examine apoptosis induction, caspase-3 activation was evaluated 24 hours after thapsigargin treatment."}, "[2]": {"tested_on": "E1B-19K #6 and Aven-E1B-19K #22 BHK-FVIII cell lines", "assay": "Thapsigargin-induced caspase-3 activation, engineered cell lines", "type": "cell-based, hamster", "conditions": "24 hours after 2 μM thapsigargin treatment, anti-apoptosis engineered cell lines", "description": "as §1, §2"}},
  "data": [
    {"smiles": "C/C=C(/C)C(=O)O[C@H]1C(C)=C2[C@H]([C@@H]1OC(=O)CCCCCCC)[C@@](C)(OC(C)=O)C[C@H](OC(=O)CCC)[C@@]1(O)[C@H]2OC(=O)[C@@]1(C)O", "note": "[thapsigargin]", "values": [
      {"measurement": "percentage of caspase-3 activated cells", "setting": "[1]", "result": "Approximately 20%"},
      {"measurement": "percentage of caspase-3 activated cells", "setting": "[2]", "result": "less than 5%"}
    ]}
  ]
}
